The text below walks through data of patent US20120027753A1, “MicroRNAs in Never-Smokers and Related Materials and Methods” (THE OHIO STATE UNIVERSITY, priority 2009, published 2012).

Common to all, as to assay type: cell-based, human
For series [1], the system named is uncleaved PARP in H441 cells. Kind of series: Western blot of uncleaved PARP, H441. Conditions: H441, anti-miR-21 in the presence or absence of AG1478 (2 μM, 72 h). The method, then:
(§1) FIG. 3D: Uncleaved PARP was evaluated by Western blot. Cells were transfected with anti-miR-21 or anti-EGFP as above and then grown in the presence or absence of 2 μM of AG1478 for 72 h. β-actin was a loading control.
(§2) Cells were lysed in buffer containing 50 mM Tris-HCl, pH 7.6, 150 mM NaCl, 0.1% sodium dodecyl sulfate, 1% Nonidet P-40, and 0.5% sodium-deoxycholate. The lysates were kept on ice for 30 min, and then centrifuged at 13000 g for 30 min. The supernatant was collected and then 10 μg of protein were separated by gel electrophoresis on 10% gels, transferred to nitrocellulose membranes and detected by immunoblotting using a chemiluminescence system (GE Healthcare Bio-Sciences Corp, Piscataway, N.J.). The images were quantified by measuring signal intensity using NIH ImageJ1.40g (rsb.info.nih.gov/ij/). The antibodies detecting EGFR, phospho-EGFR (Tyr1173), phospho-Akt (Ser473), PARP and β-actin were purchased from Cell Signaling Technology (Beverley, Mass.).
Background: A western blot detects proteins with antibodies after separation by electrophoresis.

A further series concerns miR-21 in H441 cells. Kind of series: qRT-PCR of miR-21 after anti-miR-21 transfection, H441. The settings on record: H441, 40 nM, 72 h, vs anti-EGFP control. The method, then:
(§3) FIG. 3A: Cells were transfected with 40 nM of anti-miR-21 (+) or control oligonucleotide (anti-EGFP) (−) for 72 h and examined by qRT-PCR. The expression levels of miR-21 after transfection of anti-miR-21 were expressed as the relative values to control. Data were mean±SD from three independent experiments. *, p<0.05, paired t-test.
(§4) Expression of mature miRs was examined using qRT-PCR analysis using a TaqMan Human MicroRNA Assay kit (Applied Biosystems, Foster City, Calif.). RNU6B was used as an endogenous control (#4373381, Applied Biosystems). Reactions were performed using a PRISM 7700 Sequence Detector System (Applied Biosystems). Gene expression was quantified and values were reported as 2-ΔΔCT. Data were presented as mean±SD from triplicate.
(§5) 2′-O-methyl oligonucleotides were chemically synthesized at Integrated DNA Technologies (Coralville, Iowa). […] Activities of caspase-3 and caspase-7 were analyzed using ApoONE Homogeneous Caspase 3/7 Assay (Promega) according to the manufacturer's instructions. Samples were measured after 6 h of incubation with the caspase substrate on a fluorescent plate reader using wavelengths of 485 and 535 nm for excitation and emission, respectively. […]
Background: In qPCR the cycle at which signal appears reflects the starting amount.

The test system of a further series is miR-21 in H3255 cells. Kind of series: qRT-PCR of miR-21 after anti-miR-21 transfection, H3255. Conditions: H3255, 40 nM, 72 h, vs anti-EGFP control. The method, then:
as §3, §4, §5

Series [2] concerns H3255 cells (caspase-3 and caspase-7 activities). In words: ApoONE caspase 3/7 apoptosis assay, H3255. How it is done: (§6) FIGS. 3B-3C: Cells (H3255 or H441) were transfected with 40 nM of anti-miR-21 (+) or anti-EGFP (−) for 72 h and then grown in the presence or absence of 0.2 μM of AG1478 for 24 h (H3255) or 10 μM for 72 h (H441). The activities of caspase 3/7 were expressed as the relative values to the activities of cells without anti-miR-21 and AG1478. Data were mean±SD from at least four independent experiments. *, p<0.05, Student t-test.
(§7) 2′-O-methyl oligonucleotides were chemically synthesized at Integrated DNA Technologies (Coralville, Iowa). 2′-O-methyl oligonucleotides had the following sequences: 2′OMe-enhanced green fluorescent protein (EGFP) (anti-EGFP) 5′-AAGGCAAGCUGACCCUGAAGU-3′ [SEQ ID NO:1] and 2′OMe-miR-21 (anti-miR-21) 5′-UCA ACA UCA GUC UGA UAA GCUA-3′ [SEQ ID NO:2]. H441 and H3255 cells were plated in triplicate in 96-well plates. Cells were transfected using LipofectAMINE 2000 reagent (Invitrogen) 24 h after plating. […] Activities of caspase-3 and caspase-7 were analyzed using ApoONE Homogeneous Caspase 3/7 Assay (Promega) according to the manufacturer's instructions. Samples were measured after 6 h of incubation with the caspase substrate on a fluorescent plate reader using wavelengths of 485 and 535 nm for excitation and emission, respectively. […]

Series [3] relates to uncleaved PARP in H3255 cells. Kind of series: Western blot of uncleaved PARP, H3255. Conditions: H3255, both anti-miR-21 and AG1478 (2 μM, 72 h). How it is done: as §1, §2
Series [4] has as its system H441 cells (caspase-3 and caspase-7 activities). Kind of series: ApoONE caspase 3/7 apoptosis assay, H441. How it is done:
as §6, §7

Series [5] relates to miR-21 expression in H441 cells. Kind of series: qRT-PCR of miR-21 expression after AG1478 treatment, H441. Conditions: H441, AG1478 at 10 μM, absence of EGF, p<0.05. How it is done: FIG. 7: AG1478 represses miR-21 expression in H441 lung adenocarcinoma cells. MiR-21 expression levels were analyzed by qRT-PCR after the AG1478 treatments (2 μM or 10 μM) in the absence of EGF and expressed relative to untreated cells. Data were mean±SD from triplicate. *, p<0.05, paired t-test.
as §4
(§8) AG1478 was purchased from Calbiochem (San Diego, Calif.). Epidermal growth factor (EGF) was purchased from Promega (Madison, Wis.). To evaluate the effect of AG1478 on the EGFR signaling pathway and miR-21 expression levels, lung cancer cell lines were serum-starved for 24 h, incubated in the presence or absence of AG1478 (2 μM or 10 μM) for 2 h, and then for an additional 15 min in the presence or absence of EGF (20 ng/ml).

For series [6], the system named is A549 lung adenocarcinoma cells (EGFR wild-type). In words: MTS growth inhibition assay, A549. The text has this:
(§9) Six lung adenocarcinoma cell lines (A549, H23, H441, H1650, H1975 and H3255), one squamous cell line (H157) and one large cell carcinoma cell line (H1299) were used in this study. H3255 was provided by National Cancer Institute and maintained in ACL-4 medium (GIBCO) with 5% fetal bovine serum (GIBCO). A549, H23, H441, H1650, H1975, H157 and H1299 were purchased from American Type Culture Collection (ATCC) and maintained in RPMI 1640 (GIBCO) with 10% fetal bovine serum. hTERT-immortalized normal human bronchial epithelial cells (HBET2) were established.
(§10) Growth inhibition was assessed by MTS assay (Dojindo, Japan) to examine the effect of AG1478 on lung cancer cell lines. Cell suspensions (5,000 cells/well) were seeded into 96-well plates and increasing concentrations of AG1478 (0, 0.4, 2.0, 10 and 50 μM) were added. After incubation for 72 h at 37° C., MTS [3-(4,5-dimethylthiazol-2-yl)-5-(3-carboxymethoxyphenyl)-2-(4-sulfophenyl) 2H-tetrazolium, inner salt] was added to each well and incubated for 2 h at 37° C., and then absorbance was measured using a microplate reader with a test wavelength of 450 nm. The IC50 value was defined as the concentration needed for 50% reduction of the growth by treatment with AG1478. Each experiment was done at least in triplicate, and four times independently. The data were shown as mean±SD.

Series [7] concerns H3255 lung adenocarcinoma cells (EGFR mutant L858R). Kind of series: MTS growth inhibition assay, H3255. Conditions: 72 h, read-out: IC50 (half maximal inhibitory concentration), cell growth.
From the text: as §9, §10
In general terms: Formazan colour is commonly taken as a measure of viable cells.

The subject of series [8] is miR-21 expression in H3255 cells. In words: qRT-PCR of miR-21 expression after AG1478/EGF treatment, H3255. Conditions: for miR-21 expression levels: AG1478 2 μM or 10 μM. The method, then:
(§11) FIGS. 2A-2B: AG1478 represses miR-21 expression. H3255 lung adenocarcinoma cells, characterized by a high expression of miR-21 and EGFR mutation, were serum-starved for 24 h and then grown in either the presence or absence of AG1478 (2 μM or 10 μM) for 2 h with or without following exposure to 20 ng/ml of EGF for 15 min.
FIG. 2B: MiR-21 expression levels analyzed by qRT-PCR after the AG1478 treatments (2 μM or 10 μM) with or without EGF ligand stimulation. MiR-21 expression levels were expressed as the relative values to untreated cells in the absence of EGF. Data were mean±SD from four independent experiments. *, p<0.05, paired t-test.
as §4, §8

Series [9] has as its system H441 lung adenocarcinoma cells (EGFR wild-type). Kind of series: MTS growth inhibition assay, H441. Conditions: 72 h, read-out: IC50 (half maximal inhibitory concentration), cell growth.
From the text: as §9, §10

The test system of series [10] is EGFR signaling (phospho-EGFR, phospho-Akt) in H3255 cells. In words: Western blot of p-EGFR and p-Akt after AG1478 treatment, H3255. The settings on record: H3255, AG1478 at either 2 μM or 10 μM for 2 h, with or without EGF 20 ng/ml. The method, then: as §11
FIG. 2A: The effect of AG1478 on phospho-EGFR (p-EGFR) and phospho-Akt (p-Akt) expression. β-actin was a loading control.
as §8
Cells were lysed in buffer containing 50 mM Tris-HCl, pH 7.6, 150 mM NaCl, 0.1% sodium dodecyl sulfate, 1% Nonidet P-40, and 0.5% sodium-deoxycholate. […] The supernatant was collected and then 10 μg of protein were separated by gel electrophoresis on 10% gels, transferred to nitrocellulose membranes and detected by immunoblotting using a chemiluminescence system (GE Healthcare Bio-Sciences Corp, Piscataway, N.J.). The images were quantified by measuring signal intensity using NIH ImageJ1.40g (rsb.info.nih.gov/ij/). […]

For series [11], the system named is H1975 lung adenocarcinoma cells (EGFR mutant L858R and T790M). In words: MTS growth inhibition assay, H1975.
From the text: as §9, §10

Series [12] relates to H1650 lung adenocarcinoma cells (EGFR mutant ΔE746-A750). Kind of series: MTS growth inhibition assay, H1650.
From the text: as §9, §10

In the case of “anti-miR-21: 2′-O-methyl antisense oligonucleotide targeting miR-21, 5′-UCA ACA UCA GUC UGA UAA GCUA-3′ [SEQ ID NO:2] (antisense UCAACAUCAGUCUGAUAAGCUA; all 2'-O-methyl, backbone not given here)”, the “amounts of uncleaved PARP” value in series [1] and in series [3] was “markedly decreased” each time. For the same compound, the “miR-21 expression after antisense transfection” value with miR-21 in H441 cells and in the series on miR-21 in H3255 cells was “repression of miR-21 in these cells was confirmed” in each case. Further, the “apoptosis (caspase 3/7 activities)” value is given as “did not induce apoptosis” in [2] (H3255, anti-miR-21 40 nM alone); “significantly enhanced AG1478-induced apoptotic response” in series [2] (H3255, anti-miR-21 40 nM in combination with AG1478 at 0.2 μM for 24 h); “significant increase in apoptotic response” in [4] (H441, anti-miR-21 40 nM alone); “further enhanced apoptotic response” in [4] (H441, anti-miR-21 40 nM in combination with 10 μM AG1478 for 72 h).

On to `COc1cc2ncnc(Nc3cccc(Cl)c3)c2cc1OC` [AG1478], for which the miR-21 expression entry in series [5] was “significantly repressed miR-21 expression”. Moreover, the cell proliferation result in series [6], in series [11] and in series [12] was “inhibited cell proliferation” in each case. Besides, the figures for the IC50 in [7] and in [9] were 0.3 µM and 10 µM, respectively. The miR-21 expression levels result is given as “significantly repressed” in series [8] (H3255, absence of EGF, p<0.01) and “inhibited back to the basal levels” in series [8] (H3255, with EGF 20 ng/ml, p<0.05). Further, the “EGFR signaling (p-EGFR and p-Akt)” value in series [10] is on record as “effectively inhibited the EGFR signaling”.

As to “EGF: Epidermal growth factor (EGF) ligand, purchased from Promega”, the “upregulation of miR-21 expression” value in series [8] (H3255, serum-starved, EGF 20 ng/ml for 15 min, relative to untreated cells) is listed as roughly 2.5 fold.
